# “Also recorded” adds a separate entry of the source.
# Columns and labels:
# [1] = tested on: A. thaliana; assay: Growth and toxicity tests on A. thaliana (genotype not stated); format: in vivo; conditions: for Effect on growth of A. thaliana: in vivo
# Source text: (§1) Presumably endogenous transaminase may be specific for the L-enantiomer, so the corresponding D-enantiomer is not metabolized in wildtype plants, but only in plants expressing DAAO. […] The toxicity of some D-amino acids on organisms is not well understood, and has only occasionally been studied in plants (Gamburg K Z & Rekoslavskaya N I (1991) Fiziologiya Rastenii 38, 1236-1246). Apart from A. thaliana, we have also tested the susceptibility of other plant species to D-serine, including poplar, tobacco, barley, maize, tomato and spruce. We found all tested species susceptible to D-serine at concentrations similar to those shown to be toxic for A. thaliana. A proposed mechanism for D-serine toxicity in bacteria is competitive inhibition of […] coupling to pantoic acid, thus inhibiting formation of pantothenic acid (Cosloy S D & McFall E (1973) J. Bacteriol. 114, 685-694). […] A second putative cause of D-amino acid toxicity is through competitive binding to tRNA. […] Genes similar to that encoding bacterial deacylase have also been identified. in A. thaliana (Soutourina J et al. (1996) J. Biol. Chem. 274, 19109-19114), corroborating the possibility that the mode of toxic action of D-amino acids might be through competitive binding to tRNA.
# [2] = tested on: DAAO transgenic plants; assay: Germination of DAAO transgenic plants on D-Asn; format: in vivo; conditions: 30 mM
# Source text: The D-amino acid oxidase of the invention may be expressed in the cytosol, peroxisome, or other intracellular compartment of the plant cell. Compartmentalisation of the D-amino acid metabolising polypeptide may be achieved by fusing the nucleic acid sequence encoding the DAAO polypeptide to a sequence encoding a transit peptide to generate a fusion protein. Gene products expressed without such transit peptides generally accumulate in the cytosol. The localization of expressed DAAO in the peroxisome produces H2O2 that can be metabolised by the H2O2 degrading enzyme catalase. Higher levels of D-amino acids may therefore be required to produce damaging levels of H2O2. Expression of DAAO in the cytosol, where levels of catalase activity are lower, reduces the amount of D-amino acid required to produce damaging levels H2O2. Expression of DAAO in the cytosol may be achieved by removing peroxisome targeting signals or transit peptides from the encoding nucleic acid sequence. For example, the dao1 gene (EC: 1.4.3.3: GenBank Acc.-No.: U60066) from the yeast Rhodotorula gracilis (Rhodosporidium toruloides) was cloned as described (WO 03/060133). The last nine nucleotides encode the signal peptide SKL, which guides the protein to the peroxisome sub-cellular organelle.
# [3] = tested on: T1 seeds of transgenic Arabidopsis plants; assay: Selection of T1 seeds on selective media; format: in vivo; conditions: for Number of surviving seedlings: 2,074, 1,914 and 1,810 T1 seeds sown on D-alanine (3 mM), D-serine (3 mM) and kanamycin (50 μg/ml) plates, 5 d after germination; for Transformation frequencies found on the selective media: kanamycin 50 μg/ml, D-alanine 3 mM, D-serine 3 mM
# Experimental: (§2) T1 seeds of transgenic Arabidopsis plants were surface-sterilized and sown in Petri plates that were sealed with gas-permeable tape. The growth medium was half strength MS19 with 0.5% (wt/vol) sucrose and 0.8% (wt/vol) agar, plus 3 mM D-alanine, 3 mM D-serine or 50 μg/ml kanamycin as the selective agent. Plants were grown for 5 d after germination with a 16 h photoperiod at 24° C. To evaluate the selection efficiency on different substrates, 2,074, 1,914 and 1,810 T1 seeds were sown on D-alanine-, D-serine- and kanamycin-selective plates, respectively, and the number of surviving seedlings was counted (44, 32 and 43, respectively).
# (§3) The T-DNA contained both 35S:dao1 and pNos:nptII, allowing D-amino acid and kanamycin selection to be compared in the same lot of seeds.
# [4] = tested on: dao1 transgenic A. thaliana; assay: Growth of dao1 (DAAO) transgenic A. thaliana on medium with D-amino acids; format: in vivo, Arabidopsis thaliana; conditions: for Effect on the transgenic plants: concentration of 30 mM; for Development of transgenic plants under selection conditions: in vivo
# Experimental: (§4) FIG. 4 D-amino acid dose responses of dao1 transgenic and wild-type A. thaliana. (a-d) Growth of dao1 transgenic line 3:7 (white), 10:7 (light gray), 13:4 (gray) and wild-type (black) plants, in fresh weight per plant, on media containing various concentrations of D-serine, D-alanine, D-isoleucine and D-valine in half-strength MS with 0.5% (wt/vol) sucrose and 0.8% (wt/vol) agar. Different concentration ranges were used for different ID-amino acids. The plants were grown for 10 d after germination under 16 h photoperiods at 24° C.; n=10±s.e.m., except for plants grown on D-isoleucine, where smaller Petri dishes were used, (n=6±s.e.m.).
# as §2, §3
# Therefore, plants containing the construct were tested as described above on two sets of media, one containing D-isoleucine and the other containing D-valine at various concentrations, to assess whether DAAO could also be used as a counter-selection marker. Unambiguous counter-selection selection was achieved when seeds were sown on either D-isoleucine or D-valine at concentrations greater than 10 mM (FIG. 4 c,d).
# [5] = tested on: wild-type Arabidopsis thaliana; assay: Growth of wild-type A. thaliana plantlets on medium with D-amino acids; format: in vivo; conditions: for Effect on plant growth (FIG. 3): 3 mM in half-concentrated Murashige-Skoog medium, wild type plantlets; for Growth of wild-type plants on selection media: immediately after the cotyledons had emerged; for Growth of wild-type plants (FIG. 4): various concentrations in half-strength MS, 10 d after germination
# Experimental: Wild type Arabidopsis thaliana plantlets were grown on half-concentrated Murashige-Skoog medium (0.5% (wt/vol) sucrose, 0.8% (wt/vol) agar) supplemented with the indicated D-amino acid at either 3 mM (Panel A) or 30 mM (Panel B).
# as §4, §2
# [6] = tested on: wild-type seedlings; assay: Sprayed (foliar) application on wild-type seedlings; format: in vivo, A. thaliana; conditions: one-week-old seedlings, sprayed on three consecutive days, 50 mM
# Source text: (§5) Selection of seedlings on media containing D-alanine or D-serine was very rapid compared to selection on kanamycin. […] Therefore, transformants could be distinguished from non-transformed plants directly after germination. The difference between wild-type and transgenic plants after D-amino acid selection was unambiguous, with no intermediate phenotypes. In contrast, intermediate phenotypes are common when kanamycin resistance is used as a selection marker. […] Transgenic seedlings were resistant to foliar application of D-alanine or D-serine, so selection on soil was possible.
# [7] = tested on: Transgenic seedlings; assay: Foliar application on transgenic seedlings; parameters: species or system A. thaliana; conditions: in vivo
# Source text: as §5
# [8] = tested on: poplar; assay: Susceptibility of other plant species to D-serine; format: in vivo; conditions: concentrations similar to those toxic for A. thaliana
# Source text: as §1
# [9] = tested on: tobacco; assay: Susceptibility of other plant species to D-serine; format: in vivo; conditions: concentrations similar to those toxic for A. thaliana
# Source text: as §1
# [10] = tested on: spruce; assay: Susceptibility of other plant species to D-serine; format: in vivo; conditions: concentrations similar to those toxic for A. thaliana
# Source text: as §1
# [11] = tested on: barley; assay: Susceptibility of other plant species to D-serine; format: in vivo; conditions: concentrations similar to those toxic for A. thaliana
# Source text: as §1
# [12] = tested on: tomato; assay: Susceptibility of other plant species to D-serine; format: in vivo; conditions: concentrations similar to those toxic for A. thaliana
# Source text: as §1
# [13] = tested on: maize; assay: Susceptibility of other plant species to D-serine; format: in vivo; conditions: concentrations similar to those toxic for A. thaliana
# Source text: as §1
# [14] = biological target: T1, DAAO (Rhodotorula toruloides, UniProt P80324); assay: DAAO incubation of cell-free plant extracts, keto acid production by HPLC; format: biochemical, Rhodotorula gracilis; conditions: cell-free extracts from dao1 transgenic line 10:7
# T1 construct: expressed in transfected cells; host or cells: Arabidopsis thaliana (Col-0), dao1 transgenic line 10:7, transformed with pPCV702:dao1 (CaMV 35S); crude soluble protein extract
# T1 sequence (P80324 25-368): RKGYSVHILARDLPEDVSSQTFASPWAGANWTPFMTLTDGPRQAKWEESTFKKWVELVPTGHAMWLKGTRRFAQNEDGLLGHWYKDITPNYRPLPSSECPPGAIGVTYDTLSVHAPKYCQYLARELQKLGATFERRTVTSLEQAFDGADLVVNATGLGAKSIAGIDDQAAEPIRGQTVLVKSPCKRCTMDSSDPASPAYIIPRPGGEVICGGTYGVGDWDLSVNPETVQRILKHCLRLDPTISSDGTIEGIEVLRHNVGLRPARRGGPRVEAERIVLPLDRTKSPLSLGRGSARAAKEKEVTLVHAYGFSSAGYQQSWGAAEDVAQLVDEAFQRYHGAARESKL
# Experimental: Soluble proteins were extracted by shaking 0.1 g samples of plant material that had been finely pulverized in a 1.5 ml Eppendorf tube in 1 ml of 0.1 M potassium phosphate buffer, pH 8. DAAO activity was then assayed as follows. Reaction mixtures were prepared containing 2,120 μl of 0.1 M potassium phosphate buffer, pH 8, 80 μl of crude protein extract and 100 μl of 0.3 M D-alanine. The samples were incubated for 2 h at 30° C. The enzyme activity was then assessed, by measuring the increase in absorbance at 220 nm (E=1.090 M^−1 cm^−1) associated with the conversion of D-alanine to pyruvate, after transferring the test tubes to boiling water for […] to stop the reaction. In control reactions, D-alanine was added immediately before boiling. One unit of DAAO activity is defined as the turnover of one micromole of substrate per minute, and activity was expressed per gram plant biomass (fresh weight). The breakdown of D-isoleucine and D-valine in DAAO incubations, and the associated production of 3-methyl-2-oxopentanoate and 3-methyl-2-oxobutanoate, were analyzed by high-performance liquid chromatography. In other respects the reactions were carried out as described above.
# Presumably endogenous transaminase may be specific for the L-enantiomer, so the corresponding D-enantiomer is not metabolized in wildtype plants, but only in plants expressing DAAO. […]
smiles,measurement,setting,value
"CC(C)C(=O)C(=O)O [3-methyl-2-oxobutanoate, 3-methyl-2-oxobutanoate]",Effect on growth of A. thaliana,[1],impaired growth
CCC(C)C(=O)C(=O)O (stereo not drawn) [3-methyl-2-oxopentanoate],Effect on growth of A. thaliana,[1],impaired growth
"NC(=O)C[C@@H](N)C(=O)O [D-Asn, D-asparagine]",Inhibition of germination of DAAO transgenic plants (cytosolic and peroxisomal constructs),[2],inhibited significantly more than the wild-type
C[C@@H](N)C(=O)O [D-alanine],Number of surviving seedlings,[3],44
same,Transformation frequencies found on the selective media,[3],2.12%
same,Effect on the transgenic plants,[4],no negative effect
same,Development of transgenic plants under selection conditions,[4],developed normally
same,Effect on transgenic plantlets comprising DAAO gene (FIG. 2),[4]; treated with 30 mM,no severe damage
same,Effect on plant growth (FIG. 3),[5],severe phytotoxic effects
same,Growth of wild-type plants on selection media,[5],inhibited growth
same,Effect on wild-type plantlets (FIG. 2),[5]; treated with 30 mM,toxic effect
same,Growth of wild-type plants (FIG. 4),[5],inhibited even at quite low concentrations
same,Effect of sprayed application on wild-type seedlings,[6],effectively killed
same,Response of transgenic seedlings to foliar application,[7],resistant
N[C@H](CO)C(=O)O [D-serine],Number of surviving seedlings,[3],32
same,Concentration at which efficient selection was achieved (FIG. 4a),[3]; in vivo,lower than 1 mM
same,Transformation frequencies found on the selective media,[3],1.67%
same,Effect on growth of the transgenic plants,[4]; 3 mM,slightly inhibited the growth
same,Effect on the transgenic plants,[4],significant growth inhibition
same,Development of transgenic plants under selection conditions,[4],developed normally
same,Effect on plant growth (FIG. 3),[5],severe phytotoxic effects
same,Growth of wild-type plants on selection media,[5],inhibited growth
same,Growth of wild-type plants (FIG. 4),[5],inhibited even at quite low concentrations
same,Effect of sprayed application on wild-type seedlings,[6],effectively killed
same,Susceptibility of poplar,[8],susceptible
same,Susceptibility of tobacco,[9],susceptible
same,Susceptibility of spruce,[10],susceptible
same,Susceptibility of barley,[11],susceptible
same,Susceptibility of tomato,[12],susceptible
same,Susceptibility of maize,[13],susceptible
same,Mitigation of toxicity in A. thaliana by pantothenic acid or a-alanine,[1]; pantothenic acid or a-alanine provided,could not be mitigated
same,Response of transgenic seedlings to foliar application,[7],resistant
CC(C)[C@@H](N)C(=O)O [D-valine],Growth of plants expressing DAAO (FIG. 4),"[4]; various concentrations in half-strength MS, 10 d after germination",strong negative influence on the growth; also recorded: inhibit growth
same,Effect on wild-type plants at higher concentrations (FIG. 4d),[5]; higher concentrations,moderately negative effect
same,Growth of wild-type plants (FIG. 4),[5],not toxic; also recorded: minor effects; also recorded: not the wild-type plants
same,Increase in production of 3-methyl-2-oxobutanoate compared to extracts of wild-type plants,[14],7 fold
CC[C@H](C)[C@H](N)C(=O)O [L-isoleucine],Effects on wildtype plants,[5]; in vivo,negative effects
NC[C@H]1O[C@H](O[C@H]2[C@H](O)[C@@H](O[C@H]3O[C@H](CO)[C@@H](O)[C@H](N)[C@H]3O)[C@H](N)C[C@@H]2N)[C@H](O)[C@@H](O)[C@@H]1O [kanamycin],Number of surviving seedlings,[3],43
same,Transformation frequencies found on the selective media,[3],2.37%
